Here are results for six compounds from patent US20100168120A1, “SALTS OF PYRIDAZINE COMPOUNDS” (NEUROMEDIX INC., priority 2006, published 2010).

For one data set, the system named is NO production. Description: Inhibition of NO production (glial activation). The class given is cell-based. The settings on record: read-out: NO, concentration required for 50% inhibition.
Data set [1] can be described thus: logP by octanol/water partition coefficient.
In another data set the test system is IL-1β production. Description: Inhibition of IL-1β production (glial activation). The class given is cell-based. The settings on record: in words.
Data set [2] deals with human amyloid-beta (Aβ)-induced injury. Description: AD-relevant mouse model of human Aβ-induced injury (Aβ infusion model). The settings on record: hippocampus, […] oral once daily for 2 weeks, dihydrochloride salt. The class given is in vivo. How it is done: The efficacy of Minozac in an AD-relevant mouse model of human amyloid-beta (Aβ)-induced injury (infusion of human Aβ peptide) was determined. Briefly, C57BL/6 mice (n=5-10 mice per group) were subjected to either vehicle (Control) or human oligomeric Aβ1-42 intracerebroventricular (ICV) infusion for four weeks. […] Beginning at day 50 after the start of Aβ ICV infusion, the Y-maze test of spontaneous alternation was used to evaluate hippocampus-dependent spatial learning deficits. At day 60 after the start of Aβ ICV infusion, mice were sacrificed, perfused with buffer containing a protease inhibitor cocktail, and the brain was harvested. The brain was longitudinally bisected and the right half of the brain used for histology. The hippocampus was dissected from the left half of the brain. The levels of IL-1β, TNFα, S100B and synaptophysin were measured in hippocampal extracts by ELISA, and postsynaptic density-95 ([…]) levels were determined by Western blotting. Immunohistochemical detection of GFAP-positive astrocytes and F4/80 positive microglia was performed on 10 μm sections.

The test system of another data set is LPS inflammation model. Description: Systemic proinflammatory cytokine expression after LPS challenge. In kind it is in vivo, mouse. The settings on record: 15 mg/kg orally for 14 days, LPS challenge day 15, serum at 6 hours. How it is done: The effect of Minozac on the systemic expression of proinflammatory cytokines was determined. Briefly, saline (0.9% NaCL) or Minozac (15 mg/kg) was administered orally for 14 days. Mice were challenged with LPS at the 15th day. Mice were sacrificed at 6 hours after LPS challenge and blood harvested for serum. The levels of cytokines TNFα and […] in the serum were measured using the Meso-scale Discovery system according to manufacturer's instructions. The data for TNFα and IL-1β are shown in FIG. 4 as percent of the level observed in the saline treated mice.

The nature of another data set: in vivo. The method, then: Plasma samples obtained from dog pharmacokinetic studies were analyzed using reversed phase HPLC with tandem mass spectrometric detection. Briefly, aliquots of internal standard (200 μl of 200 ng/ml) were added to protein precipitation plates (Sirocco protein precipitation plates, Waters Corporation, Milford, Mass., USA), followed by addition of plasma sample to the plate (50 μl). The plate was shaken for 3 minutes, and then a vacuum (maximum of −10 mm Hg) was applied to the plate for 3 minutes. Extract (75 μl) was transferred into a 2 ml 96-well plate, and to each sample was added 1425 μl of Eluent A (95:5:0.1 MilliQ water:acetonitrile:formic acid). 10 μl was injected onto the reverse phase column (ODS C18; 4×2 mm i.d.; Phenomenex, Torrance, USA). The mobile phase was set to 300 μl/min and eluate by mass spectrometry (APT 5000, Applied Biosystems). Calibration standards were processed along with the samples, and the concentration of Minozac [2-(4-(4-methyl-6-phenylpyridazin-3-yl)piperazin-1-yl)pyrimidine dihydrochloride salt] determined using a regression equation. […] The internal standard was compound code MW01-8-064WH (chemical name: 4-methyl-3-phenyl-6-((4-pyrimidin-2-yl)piperazin-1-yl)pyridazine).
The pharmacokinetics of Minozac was determined at 2.5 mg/kg following oral administration by gavage of an aqueous solution.
Intravenous dosing was also carried out at 2.5 mg/kg, but with drug in a 0.9% saline solution.
The pharmacokinetics were determined following oral dosing with a neutralized propylene glycol formulation (FIG. 6) and with filled gelatin capsules at a single dose of 2.5 mg/kg (FIG. 7).

Data set [3] can be described thus: In vitro metabolic stability in rat liver microsomes. In kind it is in vitro ADME. The settings on record: 5 μM or 25 μM, 10 or 30 min. How it is done: (§1) In particular FIG. 3 are bar graphs showing that MW01-9-034WH has improved metabolic stability in rat (A) and human (B) liver microsome incubations compared to minaprine. […] Extracts were prepared, and the amount of compound remaining was analyzed by HPLC using internal standards for recovery.
A general note: Liver microsomes are a subcellular fraction often used to study metabolism.

Data set [4] can be described thus: In vitro metabolic stability in human liver microsomes. In kind it is in vitro ADME. To be noted: 5 μM or 25 μM, 10 or 30 min. How it is done: as §1
The nature of another data set: physchem. The settings on record: 37 °C, water, aqueous solubility.
Data set [5] is described as follows: Chemical stability in water, dilute acid or dilute base. The class given is physicochemical. The settings on record: dilute acid, or dilute base at 37° C. over one week.
Data set [6] is described as follows: PK assessment in mice, plasma and brain after single oral dose. To be noted: C57BL/6, mouse.

“Also recorded” adds a separate entry of the source. Like-named read-outs stand apart in the source and are kept apart here.

What is called logP is a log measure of how a compound divides between an organic and an aqueous phase. On to `c1ccc(-c2cc(-c3ccccc3)c(N3CCN(c4ncccn4)CC3)nn2)cc1` [Compound 1, 4,6-diphenyl-3-(4-pyrimidin-2-ylpiperazin-1-yl)pyridazine], for which, in the data set with NO production, the IC50 was over 25 µM. In data set [1] (octanol/water), this compound had a logP of 2.3.

For the compound `Cc1cc(-c2ccccc2)nnc1N1CCN(c2ncccn2)CC1` [Compound 5, 4-methyl-6-phenyl-3-(4-pyrimidin-2-ylpiperazin-1-yl)pyridazine], the IC50 in the data set with NO production was over 25 µM. In the data set with IL-1β production, the “selective suppression of IL-1 production compared to NO production” value is listed as “retained selective suppression”.

Take `Cc1cc(-c2ccccc2)nnc1N1CCN(c2ncccn2)CC1.Cl.Cl` [Compound 6]: the “selective suppression of IL-1 production compared to NO production” value in the data set with IL-1β production is reported as “lost selectivity”.

In the case of `Cc1cc(-c2ccccc2)nnc1N1CCN(C)CC1` [Compound 11], in the data set with IL-1β production, the “activity (suppression of proinflammatory cytokine production in glia)” value is “loss of activity; also recorded: diminution of activity”.

Broadly, the Vd is the apparent volume that relates the amount in the body to the concentration in plasma or blood. The low end stands for confinement near the circulation, the high end for extensive tissue distribution. For orientation: half-life means how long it takes for the measured level to halve. A lower half-life goes with fast loss. By bioavailability is commonly meant dose-corrected exposure relative to a reference, in per cent. High values mean much systemic uptake, low ones little systemic uptake. For orientation: solubility means the dissolved amount per volume that the medium holds. A high value points to a readily soluble substance. Broadly, the Tmax is the time at which the peak concentration occurs. As for `Cc1cc(-c2ccccc2)nnc1N1CCN(c2ncccn2)CC1.Cl.Cl` [Compound 16, 2-(4-(4-methyl-6-phenylpyridazin-3-yl)piperazin-1-yl)pyrimidine dihydrochloride salt], the “number of activated F4/80-positive microglia” value in data set [2] was “reduced”; in [2] (listed as MW01-9-034WH), “decreases”; in [2] (listed as Minozac), “reduced”. The logP in data set [1] was determined as 2.29; in data set [1] (octanol/water), 2.7. Besides, the “systemic (serum) expression of IL-1β” value with LPS inflammation model is reported as “no effect”. For the same compound, the “systemic (serum) expression of TNFα” value in the data set with LPS inflammation model is “no effect”. Besides, the Vd in “in vivo” (Beagle, dog, iv, […], Vss) is 44.5 ± 10.3 L; in “in vivo” (Beagle, dog, iv, […], Vz) it was 95.1 ± 43.6 L. The half-life in “in vivo” (in vivo, iv, […]) was 269 min; in the data set “in vivo” (in vivo, po, […]), 126 min; in the data set “in vivo” (male, Beagle, dog, po, […], t1/2), 88.2 min; in data set [6] (brain) it was about 45 min; in data set [6] (plasma), about 15 min. For the same compound, the bioavailability was determined as 23% in the data set “in vivo” (in vivo, po, […]); 16% in the data set “in vivo” (male, Beagle, dog); 21% in “in vivo” (male, Beagle, dog, po). The “metabolic stability, compound remaining” value in data set [3] and in data set [4] was “stable even after 30 min incubation” in each case. Further, the solubility in the data set “physchem” is over 322 mg/mL. The “loss of material (chemical stability)” value in [5] is “less than 10%”. For the same compound, the Tmax in [6] (brain) was about 15 min.

Turning to `Cc1cc(-c2ccccc2)nnc1NCCN1CCOCC1` [minaprine, reference compound], the “metabolic stability, compound remaining” value in data set [3] and in data set [4] was “majority of minaprine is gone by 10 min” each time.
